Results as given in the NIST ThermoML archive (doi:10.1016/j.jct.2016.04.006).
± gives the expanded uncertainty stated by the source.

Test: mn = molality of the nth substance listed, in mol/kg
Conditions: 100 kPa, Liquid, Capillary tube (Ostwald / Ubbelohde) method

NCC(=O)O [2-aminoacetic acid] + O
viscosity [mPa·s]
Conditions	m1 = 0.05	m1 = 0.15	m1 = 0.25	m1 = 0.35	m1 = 0.5
288.15 K	1.146 ± 0.021	1.16 ± 0.033	1.175 ± 0.022	1.19 ± 0.022	1.213 ± 0.022
298.15 K	0.896 ± 0.021	0.909 ± 0.021	0.921 ± 0.021	0.934 ± 0.021	0.953 ± 0.021
308.15 K	0.723 ± 0.021	0.735 ± 0.021	0.745 ± 0.021	0.755 ± 0.021	0.77 ± 0.021
318.15 K	0.603 ± 0.02	0.609 ± 0.021	0.618 ± 0.022	0.626 ± 0.021	0.639 ± 0.021

C[C@@H](O)[C@@H](O)[C@H](O)[C@H](O)C=O [6-deoxy-D-mannose] + O
viscosity [mPa·s]
Conditions	m1 = 0.0395	m1 = 0.0753	m1 = 0.1036	m1 = 0.1173	m1 = 0.1403
288.15 K	1.164 ± 0.021	1.183 ± 0.022	1.2 ± 0.022	1.208 ± 0.022	1.22 ± 0.022
298.15 K	0.91 ± 0.021	0.922 ± 0.021	0.933 ± 0.021	0.945 ± 0.021	0.951 ± 0.021
308.15 K	0.732 ± 0.021	0.744 ± 0.021	0.753 ± 0.021	0.759 ± 0.021	0.766 ± 0.021
318.15 K	0.607 ± 0.02	0.616 ± 0.02	0.623 ± 0.02	0.626 ± 0.021	0.633 ± 0.021

OC[C@H]1O[C@@H](O[C@H]2[C@H](O)[C@@H](O)[C@H](O)O[C@@H]2CO)[C@H](O)[C@@H](O)[C@@H]1O [D-cellobiose] + O
viscosity [mPa·s]
Conditions	m1 = 0.0529	m1 = 0.0639	m1 = 0.0903	m1 = 0.1292	m1 = 0.1479	m1 = 0.1603
288.15 K	1.193 ± 0.022	1.203 ± 0.022	1.231 ± 0.022	1.269 ± 0.022	1.286 ± 0.022	1.3 ± 0.023
298.15 K	0.928 ± 0.021	0.941 ± 0.021	0.961 ± 0.021	0.99 ± 0.022	1.001 ± 0.022	1.011 ± 0.024
308.15 K	0.748 ± 0.021	0.757 ± 0.021	0.771 ± 0.021	0.796 ± 0.021	0.807 ± 0.021	0.813 ± 0.022
318.15 K	0.621 ± 0.021	0.625 ± 0.021	0.64 ± 0.021	0.657 ± 0.021	0.664 ± 0.021	0.67 ± 0.021

O=C[C@H](O)[C@@H](O)[C@H](O)[C@H](O)CO [D-glucose] + O
viscosity [mPa·s]
Conditions	m1 = 0.0523	m1 = 0.0745	m1 = 0.0885	m1 = 0.1034	m1 = 0.1197	m1 = 0.142
288.15 K	–	1.183 ± 0.022	1.185 ± 0.022	1.192 ± 0.022	1.205 ± 0.022	1.219 ± 0.022
298.15 K	0.911 ± 0.021	0.921 ± 0.021	0.926 ± 0.021	0.933 ± 0.021	0.938 ± 0.021	0.948 ± 0.022
308.15 K	0.735 ± 0.021	0.743 ± 0.021	0.747 ± 0.021	0.751 ± 0.021	0.756 ± 0.021	0.762 ± 0.021
318.15 K	0.609 ± 0.02	0.614 ± 0.02	0.618 ± 0.02	0.621 ± 0.02	0.625 ± 0.021	0.63 ± 0.021
